According to US20230123497A1, “NOVEL ANTIBACTERIAL HYDROGELS” (NewSouth Innovations Pty Limited, priority 2020, published 2023):
Several values for one entry are separate records, joined by “and”; a condition that tells them apart may be missing. Equal values may be shown once.

Key:
[1] = Strain sweep test (SST), linear viscoelastic region; type: physicochemical; details: hydrogels at 1% w/v, SST at 1 Hz, 0.1% to 100% strain
Description: (§1) Initially, 1 mL of hydrogels were prepared from short peptides 11-13 and 15-19 in glass vials at concentration of 1% w/v. These vials were warmed using a heat gun to transform the hydrogel to the solution phase. Subsequently, 560 μL of the resulting solutions were cast onto the rheometer plate. The other plate was lowered to the measuring position ([…]) and the hydrogel was allowed to stand for 3 hours for the gel to form. The FST was conducted at fixed strain of 0.1% and frequency ranging from 10 Hz to 0.01 Hz. Meanwhile, the strain sweep test (SST) was performed at a frequency of 1 Hz using 0.1% strain to 100% strain. The rheology data were shown as the average of three repeats for each data point.
(§2) The mechanical properties of hydrogels 4 (formed via addition of NaCl or GdL) before and after blue light irradiation were also assessed using an Anton Paar MCR 302 rheometer with a 25 mm stainless parallel plate configuration. Prior to the hydrogel formation, 560 μL of solution phase of short peptide 4 at 1% w/v were transferred onto a rheometer plate. Meanwhile, hydrogel 4, which had been exposed to blue light, was warmed using a heat gun, to provide its solution phase. Subsequently, 560 μL of this solution phase was cast onto the rheometer plate. The other plate was lowered to the measuring position ([…]) and the hydrogel was allowed to stand for 3 hours for the gel to form. The frequency sweep test (FST) was conducted at fixed strain of 0.1% and frequency ranging from 10 Hz to 0.01 Hz. Meanwhile, the SST was performed at a frequency of 1 Hz using 0.1% strain to 100% strain. In addition, the temperature sweep test was conducted to obtain transition glass (Tg) using fixed frequency of 1 Hz and fixed strain of 0.1% with temperature ramping from 25° C. to 90° C. The rheology data were shown as the average of three repeats for each data point.
To observe the structural decay in anthranilamide-based cationic hydrogels, the SST was performed by imposing a non-linear strain. SST provides information about the viscoelastic properties of a hydrogel through determination of its linear viscoelastic region (LVER). […] Here, the LVER reported for each hydrogel represents the deviation of storage modulus (G′) from linearity, known as yield point (γy). Yield points have been reported to reflect a point where the rigidity of a hydrogel starts to weaken.

[2] = tested on: S. aureus 38; experiment: Antibacterial activity of cationic hydrogels, viable count method; type: cell-based, Staphylococcus aureus; details: hydrogel at 1% w/v in contact with S. aureus, compared to control
Description: The antibacterial activity of the anthranilamide-based cationic hydrogels 11-13 and 15-19 was investigated in vitro against S. aureus. The antibacterial activity of anthranilamide-based cationic hydrogel 11 was also investigated in vitro against E. coli.
First, a single colony of S. aureus 38 or E. coli K12 was grown in Luria-Bertani (LB) broth medium at 37° C. overnight. The resulting bacteria were harvested, via centrifugation, to obtain a bacteria pellet which was re-suspended in the same volume of LB medium, twice. The optical density (OD) value of the resulting culture was adjusted to 0.1 at 600 nm in LB (10^8 cfu·mL^−1). This bacteria solution was then further adjusted to 3×10^4 cfu mL^−1. (CFU or cfu=colony-forming unit). Bacteria solutions (1 mL), which contain either 10^8 CFUs/mL or 3×10^4 CFUs/mL, were gently added to hydrogel 11 at 1% w/v with total volume of 1 mL. Anthranilamide-based cationic hydrogels 11-13 and 15-19 (1 mL) were prepared at 1% w/v in glass vials as described above. On top of these pre-formed hydrogels, 1 mL of bacteria solution was carefully cast. […] As a negative control, a bacterial solution in the absence of hydrogel was used. After being incubated at 37° C. for 18 hours, 100 μL of bacteria solution in each vial was taken and subjected to serial dilution using phosphate buffer solution (PBS). 20 μL of each dilution were carefully transferred into nutrient agar plates and incubated for another 18 hours. The following day, bacterial growth inhibition was quantified using the viable count method. The experiment was performed twice in triplicate and multiple sample comparison was performed using one-way ANOVA at p<0.05.

[3] = Frequency sweep test (FST), rheometer; type: physicochemical; details: hydrogels 15-19 at 1% w/v; for G′ (modulus storage) / G″ (modulus loss): FST fixed strain 0.1%
Description: The mechanical properties of anthranilamide-based cationic hydrogels were assessed using an Anton Paar MCR 302 rheometer with a 25 mm stainless parallel plate configuration.
as §1, §2
In the FST, samples were measured over a range of oscillation frequencies (0.1-10 rad/s) at fixed strain, temperature, and oscillation amplitude. Higher frequencies simulate fast motion on a short time-scale, while low frequencies simulate slow motion on a long time-scale, or rest. All of the hydrogels made from the anthranilamide-based short cationic peptides, which passed the vial inversion test, were subjected to the FST using a rheometer to precisely assess their mechanical properties.

[4] = Hydrogel formation, vial inversion test (critical gel concentration); type: physicochemical; details: for CGC: triggers GdL, heat and NaCl (18, 19: heat and NaCl); for pH: hydrogels of cationic peptides 15-19
Text: (§3) The simplest method to determine whether a suitable hydrogel has formed is to use the vial inversion test. Through visual inspection, a material can be categorised as a solution, viscous solution, partial gel, or solid-like gel. A stable hydrogel needs to be able to hold its weight and/or maintain its shape during this assessment.
(§4) The critical gel concentration (CGC) is defined as the minimum mass of a short peptide required to provide a self-supporting hydrogel per unit volume in the vial inversion test (measured as % w/v).
(§5) Pre-weighed samples of short peptide 4 were prepared in aluminium-covered glass vials and Milli-Q water and 2 equivalents of NaOH (1.0 M) were added to make up concentrations of 1% w/v. The resulting suspensions were vortexed for 5 minutes to provide clear yellow solutions with pH 11.
(§6) To create a high ionic strength environment, 1 equivalent of NaCl was added and the vial was left to stand without disturbance for 3 hours at room temperature. Meanwhile, as an attempt to form a hydrogel by lowering the pH, 2 equivalents of GdL were added to a high pH solution of 4 followed by gentle mixing. These vials were inverted and allowed to stand overnight to confirm the hydrogel formation.
(§7) The formation of hydrogel 4 via the solvent switch method was conducted by dissolving short peptide 4, in an aluminium covered glass vial, with either 50% methanol, ethanol, or dimethyl sulfoxide (DMSO). Respective amounts of Mili-Q water were added to make up concentrations of 1% w/v.
(§8) In addition, gelation time was defined as the time (hours) required for 1% w/v of short peptide 4 to form a hydrogel which can be turned upside down without collapsing.
(§9) Pre-weighed samples of short peptides 10a-17a, 18, and 19 were prepared in glass vials with 10 mm internal diameter, and Milli-Q water was added to make up concentrations of 1% w/v. The resulting suspensions of short peptides 13, 18, and 19 (as ammonium or guanidinium salts) were slowly warmed until all solid had completely dissolved. GdL (1.5 to 2.0 equivalents) was added to the suspension of short peptides 10a-17a, before heat was applied. To create a high ionic strength environment, 1-5 equivalents of NaCl was added to the viscous solution of 10a-17a to make the total volume up to 1 mL, followed by gentle mixing, and the vial was left to stand without disturbance for 3 hours at room temperature. Subsequently, these vials were inverted and allowed to stand overnight to confirm hydrogel formation.

[5] = Atomic force microscopy (AFM) of fibers; type: physicochemical; details: for fiber bundle diameter: hydrogel after addition of salt, 4× below CGC; for fiber diameter: hydrogel, 4× below CGC (17 imaged at 0.10% w/v)
Description: Hydrogels of NO-releasing short peptide 4 (1 drop), at high pH, low pH, and after irradiation, were cast onto a mica substrate. Hydrogels of cationic short peptides 11-13 and 15-19 were prepared at their CGC, 2× below, and 4× below CGC in glass vials. Prior to gelation, one drop of the cationic short peptide solutions was cast onto a mica substrate. Using a glass slide, each droplet was carefully spread and was left to dry overnight before imaging. Imaging was performed using a Bruker Multimode 8 Atomic Force Microscope in Scanasyst Air (PeakForce Tappings) mode, which is based on tapping mode AFM. To prevent damage of soft samples, the imaging parameters were constantly optimized through the force curves that were collected. Bruker Scanasyst-Air probes were used, with a spring constant of 0.4-0.8 N·m^−1 and a tip radius of 2 nm.
To gain some insight on the mechanism of antibacterial action, the released solutions from hydrogel made of primary ammonium 11 were directly cast onto a mica substrate. […] After gently spreading using a glass slide and left to dry overnight, these samples were imaged using a similar manner as describe above.

[6] = Hydrogel formation, vial inversion test (critical gel concentration); type: physicochemical; set-up: key: CG: clear gel; PG: partial gel; OG: opagque gel; details: cationic peptides 15-19
Text: as §3, §4, §5
as §6, with “formation. […]” for “formation.”

[7] = as above; type: physicochemical; set-up: key: VS: viscous solution; CG: clear gel; details: cationic peptides 15-19; vial inversion test
Text: as §3, §4, §5, §6, §7, §8, §9

| LVER (linear viscoelastic region) [1] | G′/G″ ratio [3] | G′ (modulus storage) [3] | G″ (modulus loss) [3] | CGC ([4]; cationic peptides 15-19) | pH [4] | fiber bundle diameter [5] | Remarks (gel state) [6] | Remarks (gel state) ([4]; cationic peptides 15-19, vial inversion test) | fiber diameter [5] | Remarks (gel state) [7] | SMILES | bacterial reduction [2] |
| --- | --- | --- | --- | --- | --- | --- | --- | --- | --- | --- | --- | --- |
| 0.98 ± 0.02% | 16.5 | 5.12 kPa | 0.31 kPa | 0.3 % W/V | 4 | – | – | – | 104±4 nm | CG | CN(C)CCCNC(=O)[C@H](Cc1ccccc1)NC(=O)c1ccccc1NC(=O)c1ccc2ccccc2c1 [Compound 18, (S)-3-(2-(2-(2-naphthamido)benzamido)-3-phenylpropanamido)-N,N-dimethylpropan-1-aminium Ttrifluoroacetate] | 4.9 Log10 |
| 1.00 ± 0.01% | 10.1 | 1.61 kPa | 0.16 kPa | 0.3 % W/V | 5 | – | – | – | 87±6 nm | CG | CN(C)CCCNC(=O)[C@H](Cc1ccccc1)NC(=O)c1ccccc1NC(=O)c1ccc2ccccc2c1.Cl [Compound 19, (S)-3-(2-(2-(2-naphthamido)benzamido)-3-phenylpropanamido)-N,N-dimethylpropan-1-aminium Chloride] | 3.0 Log10 |

More lines, now with the values behind:

| SMILES | LVER (linear viscoelastic region) [1] | G′/G″ ratio [3] | G′ (modulus storage) [3] | G″ (modulus loss) [3] | CGC ([4]; cationic peptides 15-19) | pH [4] | fiber bundle diameter [5] | Remarks (gel state) [6] | Remarks (gel state) ([4]; cationic peptides 15-19, vial inversion test) | fiber diameter [5] | Remarks (gel state) [7] | bacterial reduction [2] |
| --- | --- | --- | --- | --- | --- | --- | --- | --- | --- | --- | --- | --- |
| CN(C)CCCNC(=O)[C@H](Cc1ccccc1)NC(=O)c1ccc(F)cc1NC(=O)c1ccc2ccccc2c1 [Compound 15] | 2.01% and 2.01 ± 0.06% | 20 | 1.20 kPa | 0.06 kPa | 0. % W/V | 5.5 | 115±10 nm | OG | – | – | – | 3.1 Log10 |
| CN(C)CCCNC(=O)[C@H](Cc1ccccc1)NC(=O)c1ccc(Cl)cc1NC(=O)c1ccc2ccccc2c1 [Compound 16] | 1.66% and 1.66 ± 0.10% | 10.6 | 0.53 kPa | 0.05 kPa | 0.2 % W/V | 5.5 | 99±6 nm | OG | – | – | – | 5.0 Log10 |
| CN(C)CCCNC(=O)[C@H](Cc1ccccc1)NC(=O)c1ccc(Br)cc1NC(=O)c1ccc2ccccc2c1 [Compound 17] | 0.16% and 0.16 ± 0.01% | 4.0 | 0.08 kPa | 0.02 kPa | – | 5.5 | – | – | OG → PG | 101±6 nm | – | – |
